Our source for the TGI values is PubChem BioAssay (NCI).

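Dose response: 5 concentrations. Exposure: 48 h. Format: 96-well plates. Endpoint: linear interpolation; highest concentration if not reached. At the TGI there is no net growth.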

Some test systems named below: SR leukemia; HT29 colon; MALME-3M melanoma; IGROV1 ovarian; NCI-H460 lung; ACHN renal; OVCAR-8 ovarian; NCI-H522 lung; MCF7 breast; HS 578T breast.
What all share (experiment): NCI tumour cell line growth inhibition, 48 h

In the case of `O=C(Nc1ccc(Cl)cc1)c1cccc([N+](=O)[O-])c1O`, the TGI in the assay with SR leukemia was 31.5 µM; with HT29 colon it was > 73.1 µM; with MALME-3M melanoma, 9.97 µM; in the assay on IGROV1 ovarian, > 80.3 µM; in the assay on NCI-H460 lung it was > 53.5 µM; in the assay with ACHN renal, > 100 µM. Further, the TGI with OVCAR-8 ovarian was > 69.8 µM; with NCI-H522 lung, 6.36 µM.

Take `CN1[C@@H]2CCCC[C@H]2N(C)P1(=O)C(O)/C=C/c1ccccc1` (some centres not stated): the TGI in the assay with MCF7 breast, with HT29 colon, in the assay on MALME-3M melanoma, in the assay on HS 578T breast, with IGROV1 ovarian and in the assay with NCI-H460 lung was > 100 µM in each case. Besides, the TGI in the assay with ACHN renal, with OVCAR-8 ovarian and in the assay on NCI-H522 lung was > 100 µM in each case.

For `CC1(C)CC(=O)C2=C(C1)NC(SCC(=O)O)=C(C#N)C2c1ccc(Br)cc1` (configuration not stated), the TGI in the assay on MCF7 breast, in the assay on HT29 colon, in the assay with HS 578T breast, in the assay on IGROV1 ovarian, with NCI-H460 lung and with ACHN renal was > 100 µM in each case. The TGI with OVCAR-8 ovarian and with NCI-H522 lung was > 100 µM in each case.

Regarding `CCOC(=O)c1[nH]cnc1/N=N/N(C)N`, the TGI in the assay on MCF7 breast, in the assay with HT29 colon, with MALME-3M melanoma, in the assay on HS 578T breast, with IGROV1 ovarian and in the assay with NCI-H460 lung was > 100 µM throughout. In addition, the TGI in the assay on ACHN renal is > 100 µM; with OVCAR-8 ovarian, > 100 µM; with NCI-H522 lung, 78.7 µM.

Take `NNC(=Nc1ccccc1)SCc1ccccc1`: the TGI in the assay on MCF7 breast, with SR leukemia, with HT29 colon, in the assay with MALME-3M melanoma, with IGROV1 ovarian and with NCI-H460 lung was > 100 µM in each case. Also, the TGI in the assay on ACHN renal, in the assay on OVCAR-8 ovarian and in the assay on NCI-H522 lung was > 100 µM throughout.

As for `[N-]=[N+]=NC1=NNC2(C(=O)N1)c1ccccc1-c1ccccc12`, the TGI was > 100 µM with MCF7 breast; > 100 µM in the assay on HT29 colon; 33.3 µM with MALME-3M melanoma; > 100 µM in the assay with HS 578T breast; > 100 µM in the assay on IGROV1 ovarian; > 100 µM in the assay on NCI-H460 lung. Moreover, the TGI in the assay with ACHN renal, in the assay on OVCAR-8 ovarian and in the assay on NCI-H522 lung was > 100 µM each time.

For the molecule `Cc1c(NC(=S)N/N=C\C(=N/NC(=S)Nc2c(C)n(C)n(-c3ccccc3)c2=O)c2ccccc2)c(=O)n(-c2ccccc2)n1C`, the TGI in the assay with SR leukemia, with HT29 colon, with MALME-3M melanoma, with HS 578T breast, in the assay with NCI-H460 lung and with ACHN renal was > 100 µM throughout.

`OCc1c2c(cc3c1CC1(C3)Cc3cc4c(c(CO)c3C1)CCC4)CCC2`: the TGI in the assay with MCF7 breast amounted to 44.6 µM; with HT29 colon it was 32.4 µM; in the assay on MALME-3M melanoma it was 30 µM; in the assay with HS 578T breast, 36.9 µM; in the assay on IGROV1 ovarian, 30.2 µM; in the assay on ACHN renal it was 22.6 µM. Besides, the TGI is 38 µM with OVCAR-8 ovarian and 28.5 µM in the assay on NCI-H522 lung.

Turning to `C=C(C)[C@@H]1CC[C@]2(CO)CC[C@]3(C)[C@H](CC[C@@H]4[C@@]5(C)CC[C@H](O)C(C)(C)[C@@H]5CC[C@]43C)[C@@H]12`, the TGI with MCF7 breast is 45.5 µM; in the assay on SR leukemia, > 100 µM; in the assay on HT29 colon, 48.6 µM; in the assay on MALME-3M melanoma it was > 100 µM; in the assay on IGROV1 ovarian it was > 100 µM; in the assay with NCI-H460 lung it was > 100 µM. Moreover, the TGI in the assay on ACHN renal was 25.6 µM; in the assay with OVCAR-8 ovarian, 60.1 µM; in the assay on NCI-H522 lung, 64.9 µM.

For the molecule `COc1cc2c(cc1OC)C1=Cc3ccc(OC)c(OC)c3C(C#N)N1CC2` (configuration not stated), the TGI was > 100 µM in the assay on MCF7 breast; > 100 µM with HT29 colon; 82.9 µM in the assay with MALME-3M melanoma; > 100 µM in the assay on HS 578T breast; > 100 µM in the assay with NCI-H460 lung; > 100 µM in the assay with ACHN renal. The TGI in the assay on NCI-H522 lung is > 100 µM.

Regarding `COc1ccc(C2c3cc4c(cc3OC(NNC(N)=O)C2C)OCO4)cc1` (configuration not stated), the TGI in the assay on MCF7 breast was > 100 µM; in the assay on HT29 colon, 17.2 µM; with MALME-3M melanoma, > 100 µM; in the assay with HS 578T breast, > 100 µM; in the assay with IGROV1 ovarian, > 100 µM; in the assay on NCI-H460 lung, 98.9 µM. Moreover, the TGI in the assay on ACHN renal is > 100 µM; with OVCAR-8 ovarian, > 57.9 µM; in the assay on NCI-H522 lung it was 18.3 µM.

Regarding `CC(C)(C)OC(=O)NC1CCCC1C(O)(C1=CCCC1)C1=CCCC1` (configuration not stated), the TGI in the assay with SR leukemia, in the assay on HT29 colon, with HS 578T breast, with IGROV1 ovarian, in the assay on NCI-H460 lung and in the assay on ACHN renal was > 100 µM throughout. Moreover, the TGI in the assay with OVCAR-8 ovarian was > 100 µM.

Take `CC1(C)C2CCC1(C)C(N/C(=C(/C(Cl)=C(Cl)Cl)[N+](=O)[O-])n1nnc3ccccc31)C2` (configuration not stated): the TGI with MCF7 breast is > 100 µM; with HT29 colon, > 100 µM; in the assay with MALME-3M melanoma it was 39.4 µM; with HS 578T breast it was 43.6 µM; with NCI-H460 lung, > 100 µM; in the assay with ACHN renal it was 42.1 µM. Moreover, in the assay on OVCAR-8 ovarian, the TGI was > 100 µM.

As for `COc1ccc(/C=C2\Sc3nnc(C)n3N=C2c2cc(F)c(Cl)cc2Cl)cc1OC`, the TGI in the assay on MCF7 breast is 19.5 µM; in the assay with HT29 colon it was 26.6 µM; with MALME-3M melanoma it was 37.1 µM; in the assay on HS 578T breast, > 100 µM; in the assay with IGROV1 ovarian, 31 µM; in the assay with NCI-H460 lung, 53.1 µM. The values for the TGI in the assay with ACHN renal, in the assay on OVCAR-8 ovarian and in the assay with NCI-H522 lung were 27.1 µM, 37.9 µM and 38.7 µM, respectively.

For `CCC(C)NC(=S)N/N=C(\C)c1ccccn1` (configuration not stated), the TGI with HT29 colon is > 100 µM; in the assay on MALME-3M melanoma it was > 28.3 µM; with HS 578T breast, > 100 µM; in the assay on IGROV1 ovarian, > 30.7 µM; in the assay with NCI-H460 lung, > 100 µM; with ACHN renal it was 10.3 µM. Further, the TGI was > 25.8 µM in the assay on OVCAR-8 ovarian and 51.4 µM in the assay on NCI-H522 lung.
